According to publication PMC6868012, “Discovery of novel potential selective HDAC8 inhibitors by combine ligand-based, structure-based virtual screening and in-vitro biological evaluation” (Scientific Reports, 2019):
Where two headings read alike, the source gives them in different places. Blank lines part the entries; values can stand above or below the compound they belong to.

Legend:
HDAC6 = target: T1, HDAC6 (Homo sapiens, UniProt Q9UBN7); assay: HDAC6 activity assay (fluorometric, Sigma CS1010, Boc-Lys(Ac)-AMC); type: biochemical; conditions: read-out: HDAC-6 (IC50 in nM)
T1 sequence (Q9UBN7 1-1215): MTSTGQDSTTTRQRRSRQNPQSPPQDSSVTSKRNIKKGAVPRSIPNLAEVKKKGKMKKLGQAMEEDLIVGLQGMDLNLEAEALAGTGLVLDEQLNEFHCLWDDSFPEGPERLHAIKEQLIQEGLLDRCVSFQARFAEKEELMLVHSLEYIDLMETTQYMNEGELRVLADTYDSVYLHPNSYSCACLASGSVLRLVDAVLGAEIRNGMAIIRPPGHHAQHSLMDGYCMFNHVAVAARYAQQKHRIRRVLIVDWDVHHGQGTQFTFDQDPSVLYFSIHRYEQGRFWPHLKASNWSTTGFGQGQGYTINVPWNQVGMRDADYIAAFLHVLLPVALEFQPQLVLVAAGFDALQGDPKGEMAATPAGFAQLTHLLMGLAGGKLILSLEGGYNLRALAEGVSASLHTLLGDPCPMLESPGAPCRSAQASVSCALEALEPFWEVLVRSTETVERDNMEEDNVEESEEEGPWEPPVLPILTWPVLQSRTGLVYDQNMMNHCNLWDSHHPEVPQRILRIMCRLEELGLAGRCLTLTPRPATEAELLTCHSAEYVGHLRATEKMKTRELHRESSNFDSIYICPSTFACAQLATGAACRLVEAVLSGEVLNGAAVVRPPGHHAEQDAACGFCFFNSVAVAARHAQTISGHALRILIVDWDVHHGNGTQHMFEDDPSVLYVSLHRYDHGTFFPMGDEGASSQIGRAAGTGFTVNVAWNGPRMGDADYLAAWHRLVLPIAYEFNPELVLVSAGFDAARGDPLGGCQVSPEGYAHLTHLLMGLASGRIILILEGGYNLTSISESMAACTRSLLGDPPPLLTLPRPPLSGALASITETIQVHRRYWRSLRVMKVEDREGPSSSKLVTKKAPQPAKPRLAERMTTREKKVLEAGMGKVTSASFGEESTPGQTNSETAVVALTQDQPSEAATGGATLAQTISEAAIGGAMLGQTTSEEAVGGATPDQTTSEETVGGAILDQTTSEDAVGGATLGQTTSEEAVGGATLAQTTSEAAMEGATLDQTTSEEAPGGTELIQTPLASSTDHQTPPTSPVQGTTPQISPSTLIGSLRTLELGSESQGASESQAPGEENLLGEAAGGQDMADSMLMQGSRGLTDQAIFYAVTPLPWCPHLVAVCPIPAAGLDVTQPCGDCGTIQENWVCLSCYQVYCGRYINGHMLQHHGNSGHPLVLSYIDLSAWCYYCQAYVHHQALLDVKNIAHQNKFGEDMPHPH
Description: (§1) HDAC 6 and 8 activities were measured according to the manufacturer’s protocol from Sigma (Cat# CS1010). […] Trichostatin A was used as a reference inhibitor. The Perkin Elmer multimode reader, model-Enspire 2300 was used for fluorescence plate reader.

HDAC8 [1] = target: T2, HDAC8 (Homo sapiens, UniProt Q9BY41); assay: HDAC8 activity assay (fluorometric, Sigma CS1010, Boc-Lys(Ac)-AMC); type: biochemical; conditions: read-out: HDAC-8 (IC50 in nM)
T2 sequence (Q9BY41 1-377): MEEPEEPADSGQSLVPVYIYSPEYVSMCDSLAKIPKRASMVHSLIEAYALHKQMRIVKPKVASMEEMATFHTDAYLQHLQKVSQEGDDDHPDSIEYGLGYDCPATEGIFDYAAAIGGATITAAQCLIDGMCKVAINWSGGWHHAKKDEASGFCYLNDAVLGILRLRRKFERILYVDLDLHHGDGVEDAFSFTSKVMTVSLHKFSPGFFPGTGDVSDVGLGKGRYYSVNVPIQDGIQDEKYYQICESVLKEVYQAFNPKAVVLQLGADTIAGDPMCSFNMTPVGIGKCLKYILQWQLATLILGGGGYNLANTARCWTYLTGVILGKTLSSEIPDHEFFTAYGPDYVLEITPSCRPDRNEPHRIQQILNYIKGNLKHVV
Description: as §1

HDAC8 [2] = target: T2, HDAC8; conditions: cited from earlier work; for Activity (experimental pIC50): Table S2, training and test set molecules, converted from literature IC50; for IC50 / pIC50: Table S1, external validation set

IC50 (HDAC6): > 100 nM
IC50 (HDAC8 [1]): 9 nM
SMILES: COc1cccc(-c2nc(CNc3ccccc3SCC(N)=O)cs2)c1 [SD-01, 2-((2-(((2-(3-methoxyphenyl)thiazol-4-yl)methyl)amino)phenyl)thio)acetamide]

IC50 (HDAC6): > 100 nM
IC50 (HDAC8 [1]): > 100 nM
SMILES: COC(=O)c1ccc(Oc2coc3cc(OCC(N)=O)ccc3c2=O)cc1 [SD-03, methyl 4-((7-(2-amino-2-oxoethoxy)-4-oxo-4H-chromen-3-yl)oxy)benzoate]

IC50 (HDAC6): > 100 nM
IC50 (HDAC8 [1]): > 100 nM
SMILES: NC(=O)Cc1nc(-c2cc3cc(Cl)ccc3o2)cs1 [SD-04, 2-(4-(5-chlorobenzofuran-2-yl)thiazol-2-yl)acetamide]

IC50 (HDAC6): 30.9 nM
IC50 (HDAC8 [1]): 41.6 nM
SMILES: CONC(=O)NCc1ccc2cc(OC)ccc2c1 [SD-05, 1-methoxy-3-((6-methoxynaphthalen-2-yl)methyl)urea]

SMILES: Cc1ccc(Cc2cn(C)c3cc(C(=O)NO)ccc23)cc1 [compound 2]
Activity (experimental pIC50) (HDAC8 [2]): 7.620

SMILES: O=C(COc1ccccc1)Cc1nc(-c2ccc(C(=O)NO)s2)cs1 [compound 3]
Activity (experimental pIC50) (HDAC8 [2]): 7.420

SMILES: O=C(Cc1ccc(-c2csc(NC(=O)c3cnc([C@H]4CCCNC4)s3)n2)s1)NO [compound 4]
Activity (experimental pIC50) (HDAC8 [2]): 7.398

SMILES: Cc1ccc(S(=O)(=O)NC(=O)Nc2cccc(/C=C/C(=O)NO)c2)cc1 [compound 5]
Activity (experimental pIC50) (HDAC8 [2]): 7.398

SMILES: Cc1ccc(S(=O)(=O)NC(=O)NCc2ccc(C(=O)NO)cc2)cc1 [compound 6]
Activity (experimental pIC50) (HDAC8 [2]): 7.310

SMILES: O=C(NO)c1ccc(-c2cccc(CNCCc3ccccn3)c2)s1 [compound 7]
Activity (experimental pIC50) (HDAC8 [2]): 7.301

SMILES: O=C(Cc1ccc(-c2csc(NC(=O)c3ccn(CC4CCNCC4)c3-c3ccccc3)c2)s1)NO [compound 9]
Activity (experimental pIC50) (HDAC8 [2]): 6.854

SMILES: O=C(Cc1cccc(NC(=O)NC(=O)c2ccccc2)c1)NO [compound 10]
IC50 (HDAC8 [2]): 66.0 µM
pIC50 (HDAC8 [2]): 4.18
Activity (experimental pIC50) (HDAC8 [2]): 6.824

SMILES: CC(=O)SCC(=O)CCCCCCC(=O)Nc1ccccc1 [compound 11]
IC50 (HDAC8 [2]): 0.70 µM
pIC50 (HDAC8 [2]): 6.155

SMILES: CN(C)Cc1c(C(=O)NCCOc2ccc(C(=O)NO)cc2)oc2ccccc12 [compound 12]
IC50 (HDAC8 [2]): 19.7 µM
pIC50 (HDAC8 [2]): 4.706

SMILES: O=C(/C=C/c1ccc(CN(CCc2cc3ccccc3[nH]2)C(=O)NC(=O)c2ccccc2)cc1)NO [compound 13]
IC50 (HDAC8 [2]): 15.7 µM
pIC50 (HDAC8 [2]): 4.804
Activity (experimental pIC50) (HDAC8 [2]): 6.678

SMILES: O=C(/C=C/c1ccc(CN(CCN2CCCCC2)C(=O)NC(=O)c2ccccc2)cc1)NO [compound 14]
IC50 (HDAC8 [2]): 0.35 µM
pIC50 (HDAC8 [2]): 6.456
Activity (experimental pIC50) (HDAC8 [2]): 6.638

SMILES: O=C(/C=C/c1ccc2c(c1)nc(COCc1ccccc1)n2CCc1cccnc1)NO [compound 15]
IC50 (HDAC8 [2]): 0.18 µM
pIC50 (HDAC8 [2]): 6.745

SMILES: O=C(Cc1ccccc1)Nc1nc(-c2cc(C(=O)NO)no2)cs1 [compound 16]
IC50 (HDAC8 [2]): 0.10 µM
pIC50 (HDAC8 [2]): 7
Activity (experimental pIC50) (HDAC8 [2]): 6.469

SMILES: O=C(/C=C/c1ccc2c(c1)nc(-c1ccccn1)n2C[C@H](O)CO)NO [compound 17]
IC50 (HDAC8 [2]): 1.40 µM
pIC50 (HDAC8 [2]): 5.854
Activity (experimental pIC50) (HDAC8 [2]): 6.463

SMILES: O=C(Nc1cccc(-c2cc(C(=O)NO)n[nH]2)c1)c1ccccc1 [compound 18]
IC50 (HDAC8 [2]): 0.15 µM
pIC50 (HDAC8 [2]): 6.824
Activity (experimental pIC50) (HDAC8 [2]): 6.456

SMILES: CN(C)CC(C)(C)Cn1c(CCc2ccccc2)nc2cc(/C=C/C(=O)NO)ccc21 [compound 19]
IC50 (HDAC8 [2]): 0.12 µM
pIC50 (HDAC8 [2]): 6.921

SMILES: CC(/C=C/C(=O)NO)=C\C(C)Cc1ccc(N(C)C)cc1 (stereo not shown) [compound 20]
IC50 (HDAC8 [2]): 0.22 µM
pIC50 (HDAC8 [2]): 6.658
Activity (experimental pIC50) (HDAC8 [2]): 6.398

SMILES: O=C(/C=C/c1ccc2c(c1)ncn2Cc1ccccc1)NO [compound 21]
IC50 (HDAC8 [2]): 0.052 µM
pIC50 (HDAC8 [2]): 7.284

SMILES: O=C(NO)c1ccc(CN2CCN(C(=O)NC(=O)c3ccccc3)CC2)cc1 [compound 22]
IC50 (HDAC8 [2]): 0.029 µM
pIC50 (HDAC8 [2]): 7.538
Activity (experimental pIC50) (HDAC8 [2]): 6.337

SMILES: O=C(CCCCCNC(=O)NC(=O)c1ccccc1)NO [compound 25]
Activity (experimental pIC50) (HDAC8 [2]): 5.971

SMILES: O=C(NO)c1ccc(NC(=S)NN=C(c2ccccc2)c2ccccc2)cc1 [compound 30]
Activity (experimental pIC50) (HDAC8 [2]): 4.633

SMILES: C[C@H](N)C(=O)NCc1nnc(-c2ccccc2)o1 [compound 31]
Activity (experimental pIC50) (HDAC8 [2]): 7.009
